Series [1] relates to lacewings. The series can be described thus: Rate trial on conventional cotton, Norwood 2012 (Example 10): lacewings. It counts as in vivo, Chrysopa spp., Micromus tasmaniae. The following applies: P>0.05. Here is the method: This trial was conducted on commercial conventional cotton crops on a farm at Norwood (29° 28'S, 149° 50′E) near Moree, NSW, from 28 Feb. to 21 Mar. 2012. The cotton used for the trial was at the early squaring stage, when it was attractive to green mirids (Khan et al. 2004).
The efficacy of the following treatments against green mirids and predatory insects were evaluated: • 1. 250 mL/ha DAT 511 spore in oil (1×10^7 spores/ml); • 2. 500 mL/ha DAT 511 spore in oil (1×10^7 spores/ml); • 3. 1 L/ha DAT 511 spore in oil (1×10^7 spores/ml); • 4. 62.5 mL/ha of Fipronil; and • 5. Unsprayed (negative control).
(§1) The treatment plots were arranged in a randomized complete block design with six replicates per treatment. Each replicated plot measured 40 m wide (40 rows) and 90 m long.
Foliar application of each treatment was made on 28 Feb. (for both green mirids and beneficial insects) and 13 Mar. […]
Pre-treatment counts of adult and nymph green mirids, predatory beetles, predatory bugs, predatory lacewings and spiders were made by visual inspection of whole cotton plants. Both adults and nymphs of beneficial insects were counted. Plants were assessed in randomly selected one-metre lengths of row of each treatment replicate (i.e. 6 m per treatment). […] Data are expressed as numbers of green mirid adults and nymphs counted per metre per treatment.

Series [2] deals with green vegetable bugs (GVB). The series can be described thus: Rate trial on conventional cotton refuge crops, Undabri 2012 (Example 12): green vegetable bugs. It counts as in vivo, Nezara viridula. The following applies: 14 DAT (P<0.01) and 21 DAT (P<0.05); DAT 511 500 mL/ha and 1 L/ha, fipronil. Here is the method:
This trial was conducted using commercial conventional cotton refuge crops at Undabri in Goondiwindi (28° 55'S, 150° 31′E) from 14 Feb. to 6 Mar. 2012.
The efficacy of the following treatments against green mirids, green vegetable bugs and predatory insects was assessed: • 1. 250 mL/ha DAT 511 spore in oil (1×10^7 spores/ml); • 2. 500 mL/ha DAT 511 spore in oil (1×10^7 spores/ml); • 3. 1 L/ha DAT 511 spore in oil (1×10^7 spores/ml); • 4. 62.5 mL/ha fipronil; and • 5. Unsprayed (negative control).
The plots were arranged in a randomized complete block design with three replicates per treatment. Each replicated plot measured 8 m (8 rows) wide and 250 m long.
Foliar applications of each treatment were made on 14 Feb. 2012 using a ground spray rig fitted with flat fan nozzles to achieve a droplet size of 200 μm. All insecticide formulations were water miscible. All treatments were applied using a spray volume of 100 L/ha. The untreated (negative control) plot was left unsprayed and the plot treated with synthetic insecticide received two applications similar to, and on the same date as, the plots treated with the fungus.
For each replicate, visual counts of adults and nymphs of green mirids, green vegetable bugs (GVB), apple dimpling bugs and predatory insects on whole cotton plants were made in a randomly selected 1 m length of row of cotton plants (i.e. 6 m per treatment). […]

Series [3] concerns green mirid adults and nymphs. Nature of the series: Bollgard II cotton, Auscott-Togo 2012-13, Field 63 (Experiment 2): green mirids. It counts as in vivo, Creontiades dilutus. The following applies: 62.5 mL/ha. Here is the method:
Two separate trials (Experiment 1 in Field 77; Experiment 2 in Field 63) were conducted in Bollgard II cotton crops on a commercial cotton farm at Auscott-Togo near Narrabri, New South Wales from 11 Feb. to 5 Mar. 2013 (Field 77) and 19 Feb. to 6 Mar. 2013 (Field 63). The cotton used for each of the trials was at the late squaring to pod setting and maturation stages which was fairly attractive to green mirids.
In both trials, the efficacy of the following treatments against green mirids and predatory insects was evaluated: • 1. 250 mL/ha DAT 511 spore in oil (1×10^7 spores/ml); • 2. 500 mL/ha DAT 511 spore in oil (1×10^7 spores/ml); • 3. 1 L/ha DAT 511 spore in oil (1×10^7 spores/ml); • 4. 62.5 mL/ha of fipronil; and • 5. Unsprayed (negative control).
as §1
Foliar application of each treatment was made on 28 Feb. (for both green mirids and beneficial insects) and 13 Mar. 2012 (for beneficial insects alone) using a ground spray rig fitted with flat fan nozzles to achieve a droplet size of 200 μm. The treatment was applied during the mornings when temperatures were between 20° C. and 28° C. The timing of treatment was based on the IPM Guidelines and recommendations by CottonLogic to use an economic threshold of 0.5 green mirids per metre (Deutscher and Wilson 1999; Khan et al. 2004).
Pre-treatment counts of green mirid adults and nymphs, predatory beetles, predatory bugs, predatory lacewings and spiders were made by visual inspection of whole cotton plants. Both adults and nymphs of beneficial insects were counted. Plants were assessed in randomly selected one-metre lengths of row of each replicate (i.e. 6 m per treatment). Post-treatment counts were made 3, 7, 14 and 21 days after treatment. Data are expressed as numbers of green mirid adults and nymphs counted per metre for each treatment.

Molecules are shown by their SMILES.

For `N#Cc1nn(-c2c(Cl)cc(C(F)(F)F)cc2Cl)c(N)c1[S+]([O-])C(F)(F)F` (stereo not shown) [fipronil], in series [1], the “number of lacewings versus unsprayed (control) plots” value is “No significant difference”. Moreover, in series [2], the “green vegetable bugs per metre on unsprayed plots relative to treated plots” value is “significantly higher”. Further, the “No. green mirid adults and nymphs per meter” value in series [3] (3 DAT) is recorded as 0.33 ± 0.33 a per meter; in series [3] (7 DAT) it was 0.00 ± 0.00 a per meter; in series [3] (14 DAT) it was 0.33 ± 0.33 a per meter; in series [3] (21 DAT) it was 0.00 ± 0.00 a per meter; in series [3] (pre-spray counts), 1.67 ± 0.33 a per meter.

The values are drawn from US10563272B2, “Compositions comprising Metarhizium fungi and use thereof as a pesticide” (Cotton Research and Development Corporation, priority 2015, dated 2020).
